Measured values published in article PMC11833248, “Evolutionary and Functional Analysis of Monoamine Oxidase F: A Novel Member of the Monoamine Oxidase Gene Family” (Genome Biology and Evolution, 2025).
Like-named read-outs stand apart in the source and are kept apart here.

How the values were obtained:
IPT-MAO A/B [1] = system: T1, IPT-MAO A/B; test: HRP-coupled spectrophotometric assay of H2O2, […] nm; format: biochemical, Megalops cyprinoides; settings: 25 °C, 50 mM Hepes/NaOH pH 7.5, 0.5% v/v reduced Triton X-100; read-out: IPT-MAO A/B / K M / Human MAOB
T1 construct: full length 522 residues (borders given for the mammalian construct); N-terminal 6xHis; Pichia pastoris KM71; detergent-solubilized, FOS-choline-12

IPT-MAO A/B [2] = settings: read-out: IPT-MAO A/B / K M / Human MAOB; 25 °C, 50 mM Hepes/NaOH pH 7.5, 0.5% v/v reduced Triton X-100

SMILES | Km (IPT-MAO A/B [1]) | Km (IPT-MAO A/B [2])
NCc1ccccc1 [Benzylamine] | 50 ± 10 µM | –
NCCc1ccc(O)c(O)c1 [Dopamine] | – | 300 ± 30 µM
NCCC(=O)c1ccccc1N [Kynuramine] | 30 ± 4 µM | –
NCCc1ccccc1 [Phenethylamine] | 70 ± 10 µM | –
NCCc1c[nH]c2ccc(O)cc12 [Serotonin] | – | 100 ± 10 µM
NCCc1ccc(O)cc1 [Tyramine] | 200 ± 40 µM | –
